According to PMC9928118, “Funneling modulatory peptide design with generative models: Discovery and characterization of disruptors of calcineurin protein-protein interactions” (PLOS Computational Biology, 2023):
Each block holds one sequence with its values, some of them ahead of it.

Test system: GST-tagged Cn
Test: PEPperPRINT peptide microarray binding assay with GST-tagged Cn
In short: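 Qualitative binding: peptides printed on a PEPperPRINT microarray were incubated overnight at 4 °C with 1 mg/ml GST-tagged Cn, then detected with Alexa-Fluor 647 anti-GST antibody. Log fluorescence was baseline-corrected, averaged over duplicate spots, Z-normalized and averaged across five repeats.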

[1] = max over the spots listed under Location on chip
[2] = mean over the spots listed under Location on chip
[3] = GST-tagged Cn, max over the chip locations
[4] = GST-tagged Cn, mean over the chip locations
[5] = GST-tagged Cn, max over the chip spots listed under Location on chip
[6] = GST-tagged Cn, mean over the chip spots listed under Location on chip
[7] = GST-tagged Cn, max over the spots on the chip (two locations)
[8] = GST-tagged Cn, mean over the spots on the chip (two locations)
[9] = max over the chip locations listed for the peptide (two spots)
[10] = mean over the chip locations listed for the peptide (two spots)
[11] = GST-tagged Cn, max over the spots named in Location on chip
[12] = GST-tagged Cn, mean over the spots named in Location on chip

Sequence: VNLPIPAVQLADSGAY [SeqRBM_1417]
- Chip Fluorescence (max) [1]: 2.788
- Chip Fluorescence (mean) [2]: 0.6718

Sequence: STSSLPTFSFSSPPST [SeqRBMlowT_3479]
- Chip Fluorescence (max) [3]: -1.235
- Chip Fluorescence (mean) [4]: -1.867

Sequence: TFWTNPQYRITVTDAD [SeqRBMlowT_620]
- Chip Fluorescence (max) [1]: 2.815
- Chip Fluorescence (mean) [2]: 0.3496

Sequence: TFWTNPQFRVKLEEPD [SeqRBMlowT_201]
- Chip Fluorescence (max) [5]: 0.5145
- Chip Fluorescence (mean) [6]: -0.7212

Sequence: TFWTNPQYRITLEDVD [SeqRBMlowT_4237]
- Chip Fluorescence (max) [7]: 1.081
- Chip Fluorescence (mean) [8]: 0.5254

Sequence: HVSSSPRITITPTQHR [SeqRBMlowT_743]
- Chip Fluorescence (max) [1]: 2.778
- Chip Fluorescence (mean) [2]: 0.8662

Sequence: KSKSIPKISIQSPVHH [SeqRBMlowT_1684]
- Chip Fluorescence (max) [1]: 2.868
- Chip Fluorescence (mean) [2]: 0.2995

Sequence: NSSGAPQFQINVLMGE [SeqRBM_9653]
- Chip Fluorescence (max) [3]: -0.2717
- Chip Fluorescence (mean) [4]: -1.157

Sequence: TFWTNPQFKVKLEEVD [SeqRBMlowT_284]
- Chip Fluorescence (max) [7]: 1.062
- Chip Fluorescence (mean) [8]: -0.1705

Sequence: RAYINPFMTFIDGGHR [SeqRBMlowT_1519]
- Chip Fluorescence (max) [9]: 3.708
- Chip Fluorescence (mean) [10]: 0.9074

Sequence: TFWTNPQFRIHLEEED [SeqRBMlowT_251]
- Chip Fluorescence (max) [1]: 2.844
- Chip Fluorescence (mean) [2]: 1.205

Sequence: GAPGTPSRWGTPLAPS [SeqRBM_851]
- Chip Fluorescence (max) [11]: 1.622
- Chip Fluorescence (mean) [12]: 0.7552

Sequence: GSPPTPSRSGKPPKPL [SeqRBM_2495]
- Chip Fluorescence (max) [1]: 3.396
- Chip Fluorescence (mean) [2]: 0.6955

Sequence: NMATVPAVTMGEVART [SeqRBM_5293]
- Chip Fluorescence (max) [1]: 2.99
- Chip Fluorescence (mean) [2]: -0.7897

Sequence: KKMAPPCISVHPPEED [SeqRBMlowT_5025]
- Chip Fluorescence (max) [5]: 0.441
- Chip Fluorescence (mean) [6]: -1.335

Sequence: STSSLPTFSFSSPLPT [SeqRBMlowT_898]
- Chip Fluorescence (max) [3]: -0.2197
- Chip Fluorescence (mean) [4]: -1.424

Sequence: SFWANPQFIVSLEEPD [SeqRBMlowT_610]
- Chip Fluorescence (max) [5]: 0.3721
- Chip Fluorescence (mean) [6]: -0.5491

Sequence: PSDDQPGIIVHPAEED [SeqRBMlowT_1217]
- Chip Fluorescence (max) [1]: 2.878
- Chip Fluorescence (mean) [2]: -0.2496

Sequence: KQMAPPAINIDFAPTN [SeqRBMlowT_1821]
- Chip Fluorescence (max) [3]: -0.4908
- Chip Fluorescence (mean) [4]: -3.72

Sequence: NGPSTPTKQGQPMAPS [SeqRBM_8324]
- Chip Fluorescence (max) [5]: 0.6682
- Chip Fluorescence (mean) [6]: -0.9835

Sequence: EDGKVPSIEIDVREYA [SeqRBM_7430]
- Chip Fluorescence (max) [1]: 2.944
- Chip Fluorescence (mean) [2]: 0.8153

Sequence: PMMAVPSISSDVSNAP [SeqRBM_5566]
- Chip Fluorescence (max) [11]: 1.398
- Chip Fluorescence (mean) [12]: 0.7603

Sequence: SKLMCVTLAIGSLSTS [SeqRBM_2514]
- Chip Fluorescence (max) [7]: 1.101
- Chip Fluorescence (mean) [8]: -0.2904

Sequence: TFWSNPQFRITLEDPD [SeqRBMlowT_45]
- Chip Fluorescence (max) [9]: 4.041
- Chip Fluorescence (mean) [10]: 0.007175

Sequence: CDHMGLDIVIFVTELC [SeqRBM_1060]
- Chip Fluorescence (max) [9]: 8.388
- Chip Fluorescence (mean) [10]: 2.901

Sequence: TFWTNPQFRIKLEDVD [SeqRBMlowT_2]
- Chip Fluorescence (max) [5]: 0.5307
- Chip Fluorescence (mean) [6]: -0.7635

Sequence: ADEAIPEIVISPPELP [SeqRBMlowT_1959]
- Chip Fluorescence (max) [1]: 3.309
- Chip Fluorescence (mean) [2]: 0.2863

Sequence: TFWTNPQYKIKLEEPD [SeqRBMlowT_46]
- Chip Fluorescence (max) [5]: 0.956
- Chip Fluorescence (mean) [6]: -0.7275

Sequence: SQMGKSRPWVSPERDN [SeqRBM_2721]
- Chip Fluorescence (max) [5]: 0.7358
- Chip Fluorescence (mean) [6]: -0.1667

Sequence: LKDQFPKVRLNIIDAP [SeqRBM_543]
- Chip Fluorescence (max) [1]: 2.925
- Chip Fluorescence (mean) [2]: 0.6756

Sequence: PSLFPDALGLGQFSLS [SeqCRZ1_Aureobasidium_pullulans]
- Chip Fluorescence (max) [7]: 1.272
- Chip Fluorescence (mean) [8]: 0.42

Sequence: RTYINPFMQFTDGGRF [SeqRBMlowT_552]
- Chip Fluorescence (max) [1]: 2.5867
- Chip Fluorescence (mean) [2]: 0.5553

Sequence: GELAIKNMKPWDVGGY [SeqRBM_3830]
- Chip Fluorescence (max) [1]: 3.053
- Chip Fluorescence (mean) [2]: 1.402

Sequence: TFWTNPQYRIKVTDPD [SeqRBMlowT_12]
- Chip Fluorescence (max) [3]: -0.2746
- Chip Fluorescence (mean) [4]: -1.188

Sequence: PAGTGVGIVITVTEAE [SeqRBMlowT_157]
- Chip Fluorescence (max) [7]: 1.221
- Chip Fluorescence (mean) [8]: -0.03937

Sequence: KSKLIPKLSIQSPVHH [SeqRBMlowT_830]
- Chip Fluorescence (max) [3]: -0.5565
- Chip Fluorescence (mean) [4]: -1.425

Sequence: STSSLPTFSFSSPPPT [SeqRBMlowT_3483]
- Chip Fluorescence (max) [3]: -1.1866
- Chip Fluorescence (mean) [4]: -2.157

Sequence: TFWTNPQYVITLEDPD [SeqRBMlowT_239]
- Chip Fluorescence (max) [1]: 3.22
- Chip Fluorescence (mean) [2]: 0.7373

Second part, the sequence after the results:

- Chip Fluorescence (max) [1]: 2.669
- Chip Fluorescence (mean) [2]: -0.6649
Sequence: STASLPTFSFSPLAPS [SeqRBMlowT_9999]

- Chip Fluorescence (max) [1]: 2.642
- Chip Fluorescence (mean) [2]: 1.025
Sequence: GSMLVPAINIDYAPTN [SeqRBMlowT_5048]

- Chip Fluorescence (max) [7]: 1.098
- Chip Fluorescence (mean) [8]: -0.565
Sequence: AKDDPPKIQVHPPEED [SeqRBMlowT_9786]

- Chip Fluorescence (max) [9]: 4.384
- Chip Fluorescence (mean) [10]: 0.9288
Sequence: GGPGTPTRQGQPLAPS [SeqRBMlowT_7789]

- Chip Fluorescence (max) [11]: 1.532
- Chip Fluorescence (mean) [12]: -0.902
Sequence: RSYVNPAYSFTFDSKA [SeqSFB3_Lachancea_meyersii]

- Chip Fluorescence (max) [11]: 1.846
- Chip Fluorescence (mean) [12]: 0.06645
Sequence: TPVSDHNFALDVSGKP [Seqshuffled_9616]

- Chip Fluorescence (max) [1]: 3.109
- Chip Fluorescence (mean) [2]: 0.4888
Sequence: YRDSWVTACQKIQSKI [Seqrandom_9988]

- Chip Fluorescence (max) [7]: 1.1168
- Chip Fluorescence (mean) [8]: 0.4617
Sequence: ATDNQPGIVVHICADM [SeqRCN1_Daphnia_magna]

- Chip Fluorescence (max) [7]: 1.2153
- Chip Fluorescence (mean) [8]: 0.1411
Sequence: RNPGQALLTLRGHKKQ [SeqRBMlowT_5826]

- Chip Fluorescence (max) [5]: 0.5794
- Chip Fluorescence (mean) [6]: -0.5687
Sequence: TFWTNPQYRLKIPQVD [SeqRBMlowT_9671]

- Chip Fluorescence (max) [9]: 4.66
- Chip Fluorescence (mean) [10]: 1.641
Sequence: LCWFLDYRVVLPFFAY [Seqshuffled_7970]

- Chip Fluorescence (max) [7]: 1.0328
- Chip Fluorescence (mean) [8]: -0.6623
Sequence: KSRALSKVVINEPLTI [SeqTRESK_Leptosomus_discolor]

- Chip Fluorescence (max) [5]: 0.8318
- Chip Fluorescence (mean) [6]: -0.05808
Sequence: QASKNSNMQRSFHVNA [Seqshuffled_9426]

- Chip Fluorescence (max) [9]: 4.819
- Chip Fluorescence (mean) [10]: 0.7359
Sequence: RTRRISPLFDNPNSKQ [Seqshuffled_9774]

- Chip Fluorescence (max) [3]: 0.1716
- Chip Fluorescence (mean) [4]: -0.4714
Sequence: THTKISSFRGDAEPAP [Seqshuffled_9494]

- Chip Fluorescence (max) [5]: 0.9861
- Chip Fluorescence (mean) [6]: 0.123
Sequence: RQPGTFLLTLRGHKKQ [SeqRBMlowT_6149]

- Chip Fluorescence (max) [11]: 1.743
- Chip Fluorescence (mean) [12]: -0.1357
Sequence: MRRERSNRAMFKVNQH [Seqrandom_9977]

- Chip Fluorescence (max) [9]: 4.229
- Chip Fluorescence (mean) [10]: 0.4051
Sequence: FLGRGPQLEDFDPSRD [Seqshuffled_9338]

- Chip Fluorescence (max) [1]: 3.3
- Chip Fluorescence (mean) [2]: 1.547
Sequence: TFWTNPQYRLKVTDPD [SeqRBMlowT_5581]

- Chip Fluorescence (max) [1]: 2.929
- Chip Fluorescence (mean) [2]: 1.69
Sequence: NICTSLTLVETDPTVY [Seqshuffled_9501]

- Chip Fluorescence (max) [11]: 1.4183
- Chip Fluorescence (mean) [12]: 0.4268
Sequence: PQPSVQSAEFMEFVGH [Seqshuffled_8788]

- Chip Fluorescence (max) [5]: 0.9778
- Chip Fluorescence (mean) [6]: -1.603
Sequence: KAYMCPFMQFIEGGRR [SeqSFB3_Pan_troglodytes]

- Chip Fluorescence (max) [1]: 3.124
- Chip Fluorescence (mean) [2]: 1.438
Sequence: SVWENATVRFNFFPDN [Seqshuffled_9917]

- Chip Fluorescence (max) [7]: 1.178
- Chip Fluorescence (mean) [8]: 0.2864
Sequence: GSSSSPPVDLKIPQVR [SeqRBMlowT_8820]

- Chip Fluorescence (max) [7]: 1.116
- Chip Fluorescence (mean) [8]: -0.2464
Sequence: TFWSNPQFKIKLEEED [SeqRBMlowT_8507]

- Chip Fluorescence (max) [9]: 15.2815
- Chip Fluorescence (mean) [10]: 4.411
Sequence: LTWTSLRYSVNDDKNT [Seqshuffled_9363]
